According to patent US11180771B2 (priority 2016, dated 2021):

What was measured:
[1] = test system: weeds (all species): Echinochloa species, Schoenoplectus mucronatus, Cypres difformis, Heteranthera limosa, Monochoria vaginalis; test: Preflood oxyfluorfen rate test in water-seeded production system (Table 5), percent weeds; type: in vivo; conditions: treatments before flooding; mutant lines containing ROXY
Description: Oxyfluorfen resistant rice lines containing mutant allele ROXY, including 17Y3000, 14G3, 14G4, and 15G4, and the oxyfluorfen susceptible parent M-206 were tested at different rates of oxyfluorfen applied preflood in a water-seeded production system to assess seedling vigor, percent weeds, and yield as shown in Table 5. The design was a randomized complete block with 4 replication and 4 rates of oxyfluorfen (GoalTender®) herbicide. The plot size was 10×20 ft. The percent weeds (all species) were visually determined at 50 days after seeding in the plots and the plots were harvested at maturity. The weed species included a mixture of predominant weeds present including barnyard and late watergrass Echinochloa species, rice field bulrush Schoenoplectus mucronatus, small flower umbrella Cypres difformis, ducksalad Heteranthera limosa, and monochoria Monochoria vaginalis.

[2] = test system: weeds (all species): Echinochloa species, Schoenoplectus mucronatus, Cypres difformis, Heteranthera limosa, Monochoria vaginalis; test: Drill-seeded herbicide treatment test (Table 6), percent weeds; type: in vivo; conditions: including combinations with Prowl and Clincher, lines with mutant ROXY allele
Description: Oxyfluorfen resistant rice lines containing mutant allele ROXY, including 17Y3000, 14G3, 14G4, and 15G4, and the oxyfluorfen susceptible parent M-206 without ROXY were tested by applying oxyfluorfen at different rates and times, and in combination with other herbicides in a drill-seeded production system and evaluated for percent weeds and yield as shown in Table 6. Preflush applications were made directly after drill-seeding just before the first irrigation of the basin and preflood applications occurred just before a permanent flood of basin at about 25 days after seeding. The design was a randomized complete block with 2 replication and treatments of oxyfluorfen (GoalTender®) and combinations of oxyfluorfen with the herbicides Prowl® and Clincher®. The active ingredient of Prowl® is pendimethalin (N-(1-ethylpropyl)-3,4-dimethyl-2,6-dinitrobenzenamine). Clincher® is an herbicide for selective postemergence grass weed control in rice with the active ingredient cyhalofop (2-[4-(4-cyano-2-fluorophenoxy) phenoxy] propanoic acid, butyl ester, (R)). The plot size was 6.4×20 ft. The percent weeds (all species) were visually determined at 50 days after seeding in the plots and the plots were harvested at maturity. […]

CCOc1cc(Oc2ccc(C(F)(F)F)cc2Cl)ccc1[N+](=O)[O-] [Oxyfluorfen, oxyfluorfen]
weed control [1]: high levels of weed control | weed control [2]: high levels of weed control
